ChEMBL document CHEMBL3997802, “Design, Synthesis, and Evaluation of Isaindigotone Derivatives To Downregulate c-myc Transcription via Disrupting the Interaction of NM23-H2 with G-Quadruplex” (J Med Chem, 2017)
The source made the active and inactive calls. No cut-off for these calls is given here.

Assays:
[1] = target: T1, Nucleoside diphosphate kinase B (Homo sapiens, UniProt P22392); experiment: Binding affinity to NT647-labeled His-tagged NM23-H2 (unknown origin) expressed in Escherichia coli BL21(DE3) up to 500 uM after 30 mins by microscale thermophoresis method
[2] = Inhibition of 5'-biotin-labeled c-Myc Pu18 G-quadruplex DNA (unknown origin) interaction with His-tagged NM23-H2 assessed as ratio of Kd for NM23-H2-DNA complex in presence of compound to Kd for […]-DNA complex in absence of compound at 20 uM preincubated with NM23-H2 for 1 hr followed by addition of DNA measured after overnight incubation by ELISA
[3] = Inhibition of 5'-biotin-labeled c-Myc Pu18 G-quadruplex DNA (unknown origin) interaction with His-tagged NM23-H2 at 20 uM preincubated with NM23-H2 for 1 hr followed by addition of DNA measured after overnight incubation by ELISA
[4] = Inhibition of thiazole orange binding to c-Myc Pu18 G-quadruplex DNA (unknown origin) at 10 uM after 30 secs by fluorescence spectrophotometric method
[5] = Inhibition of thiazole orange binding to c-Myc Pu27 G-quadruplex DNA (unknown origin) at 10 uM after 30 secs by fluorescence spectrophotometric method
[6] = target: T1, Nucleoside diphosphate kinase B; experiment: Binding affinity to NT647-labeled His-tagged NM23-H2 (unknown origin) expressed in Escherichia coli BL21(DE3) after 30 mins by microscale thermophoresis method
[7] = species on record: Homo sapiens; experiment: Inhibition of NM23-H2 binding to c-Myc promoter DNA in human SiHa cell nuclear extract at 4.85 to 9.7 uM after 4 days by ChIP analysis
[8] = Stabilization of 5'-FAM/3'-TAMRA labeled c-Myc Pu18 G-quadruplex DNA (unknown origin) assessed as change in melting temperature at 1 uM after overnight incubation by FRET assay
[9] = species on record: Homo sapiens; experiment: Inhibition of NM23-H2 binding to c-Myc promoter DNA in human SiHa cell nuclear extract at 1.3 to 2.6 uM after 4 days by ChIP analysis

T1 sequence (P22392 whole entry): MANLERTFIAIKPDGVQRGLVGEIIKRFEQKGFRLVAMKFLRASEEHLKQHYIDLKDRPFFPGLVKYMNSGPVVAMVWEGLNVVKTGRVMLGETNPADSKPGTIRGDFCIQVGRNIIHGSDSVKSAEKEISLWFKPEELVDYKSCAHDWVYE

Structure (SMILES): CN1CCN(c2cc3nc4n(c(=O)c3cc2F)CCC/C4=C\c2ccc(NC(=O)CCN3CCN(CCO)CC3)cc2)CC1
- Activity [1]: Active

Structure (SMILES): CCN(CC)CCNC(=O)c1ccc(/C=C2\CCn3c2nc2cc(N4CCN(C)CC4)c(F)cc2c3=O)cc1
- Ratio [2]: 2.7

Structure (SMILES): O=C(CCN1CCCCC1)Nc1ccc(/C=C2\CCn3c2nc2cc(N4CCCCC4)c(F)cc2c3=O)cc1
- Ratio [2]: 1.4 to 4.3

Structure (SMILES): CN1CCN(c2cc3nc4n(c(=O)c3cc2F)CC/C4=C\c2ccc(NC(=O)CN3CCCC3)cc2)CC1
- Activity [1]: Active

Structure (SMILES): CN1CCN(c2cc3nc4n(c(=O)c3cc2F)CC/C4=C\c2ccc(C(=O)NCCN3CCCCC3)cc2)CC1
- Ratio [2]: 1.4 to 4.3

Structure (SMILES): CCN(CC)CCC(=O)Nc1ccc(/C=C2\CCn3c2nc2cc(N4CCCCC4)c(F)cc2c3=O)cc1
- Ratio [2]: 1.4 to 4.3

Structure (SMILES): O=C(NCCN1CCCC1)c1ccc(/C=C2\CCn3c2nc2cc(NCCN4CCCC4)c(F)cc2c3=O)cc1
- inhibition [3]: Active
- inhibition [4]: Active
- inhibition [5]: Active

Structure (SMILES): O=C(NCCN1CCCC1)c1ccc(/C=C2\CCn3c2nc2cc(NCCCN4CCCC4)c(F)cc2c3=O)cc1
- inhibition [3]: Active
- inhibition [4]: Active
- inhibition [5]: Active

Structure (SMILES): CN1CCN(c2cc3nc4n(c(=O)c3cc2F)CC/C4=C\c2ccc(NC(=O)CCN3CCN(CCO)CC3)cc2)CC1
- inhibition [3]: Active
- Kd [6]: 1.8 µM
- inhibition [7]: inactive

Structure (SMILES): CCN(CC)CCNC(=O)c1ccc(/C=C2\CCn3c2nc2cc(NCCN4CCCC4)c(F)cc2c3=O)cc1
- inhibition [3]: Active
- inhibition [4]: Active
- inhibition [5]: Active

Structure (SMILES): CN1CCN(c2cc3nc4n(c(=O)c3cc2F)CCC/C4=C\c2ccc(C(=O)NCCN3CCCC3)cc2)CC1
- inhibition [3]: Active

Structure (SMILES): CN1CCN(c2cc3nc4n(c(=O)c3cc2F)CC/C4=C\c2ccc(C(=O)NCCN3CCCC3)cc2)CC1
- inhibition [3]: Active

Structure (SMILES): O=C(CCN1CCCC1)Nc1ccc(/C=C2\CCCn3c2nc2cc(NC(=O)CCN4CCCC4)ccc2c3=O)cc1
- Ratio [2]: 2.4
- ΔTm [8]: 3.4 °C
- Kd [6]: 22.1 µM

Structure (SMILES): O=C(CCN1CCCC1)Nc1ccc(/C=C2\CCn3c2nc2cc(NC(=O)CCN4CCCC4)ccc2c3=O)cc1
- Ratio [2]: 2.5
- ΔTm [8]: 8.5 °C
- Activity [1]: inactive

Structure (SMILES): CCN(CC)CCNC(=O)c1ccc(/C=C2\CCCn3c2nc2cc(N4CCN(C)CC4)c(F)cc2c3=O)cc1
- inhibition [3]: Active

Structure (SMILES): CCN(CC)CCCNC(=O)c1ccc(/C=C2\CCn3c2nc2cc(N4CCN(C)CC4)c(F)cc2c3=O)cc1
- inhibition [3]: Active

Structure (SMILES): CCN(CC)CCCNC(=O)c1ccc(/C=C2\CCn3c2nc2cc(NCCN4CCCC4)c(F)cc2c3=O)cc1
- inhibition [3]: Active
- inhibition [4]: Active
- inhibition [5]: Active

Structure (SMILES): CN1CCN(c2cc3nc4n(c(=O)c3cc2F)CC/C4=C\c2ccc(NC(=O)CCN3CCCCC3)cc2)CC1
- inhibition [3]: Active

Structure (SMILES): O=C(NCCCN1CCCC1)c1ccc(/C=C2\CCn3c2nc2cc(NCCCN4CCCC4)c(F)cc2c3=O)cc1
- inhibition [3]: Active
- inhibition [4]: Active
- inhibition [5]: Active

Structure (SMILES): CCN(CC)CCC(=O)Nc1ccc(/C=C2\CCn3c2nc2cc(N4CCN(C)CC4)c(F)cc2c3=O)cc1
- Ratio [2]: 1.4

Structure (SMILES): CN1CCN(c2cc3nc4n(c(=O)c3cc2F)CC/C4=C\c2ccc(NC(=O)CN3CCN(CCO)CC3)cc2)CC1
- inhibition [3]: Active
- Activity [1]: Active

Structure (SMILES): O=C(CCN1CCCC1)Nc1ccc(/C=C2\CCn3c2nc2cc(N4CCCCC4)c(F)cc2c3=O)cc1
- Ratio [2]: 1.4 to 4.3
- inhibition [9]: inactive

Structure (SMILES): CN1CCN(c2cc3nc4n(c(=O)c3cc2F)CCC/C4=C\c2ccc(NC(=O)CCN3CCCCC3)cc2)CC1
- inhibition [3]: Active

Structure (SMILES): CCN(CC)CCC(=O)Nc1ccc(/C=C2\CCCn3c2nc2cc(N4CCN(C)CC4)c(F)cc2c3=O)cc1
- inhibition [3]: Active

Structure (SMILES): CN1CCN(c2cc3nc4n(c(=O)c3cc2F)CCC/C4=C\c2ccc(NC(=O)CN3CCN(CCO)CC3)cc2)CC1
- Ratio [2]: < 1.4
- Activity [1]: Active

Structure (SMILES): CN1CCN(c2cc3nc4n(c(=O)c3cc2F)CCC/C4=C\c2ccc(NC(=O)CCN3CCCC3)cc2)CC1
- Ratio [2]: 1.3

Structure (SMILES): CN(C)CCCNC(=O)c1ccc(/C=C2\CCn3c2nc2cc(N4CCN(C)CC4)c(F)cc2c3=O)cc1
- inhibition [3]: Active

Structure (SMILES): CN1CCN(c2cc3nc4n(c(=O)c3cc2F)CC/C4=C\c2ccc(C(=O)NCCCN3CCCCC3)cc2)CC1
- inhibition [3]: Active

Structure (SMILES): CN1CCN(c2cc3nc4n(c(=O)c3cc2F)CC/C4=C\c2ccc(NC(=O)CCN3CCCC3)cc2)CC1
- Ratio [2]: 1.6
- inhibition [3]: Active

Structure (SMILES): CN1CCN(c2cc3nc4n(c(=O)c3cc2F)CCC/C4=C\c2ccc(C(=O)NCCN3CCCCC3)cc2)CC1
- inhibition [3]: Active

Structure (SMILES): CN1CCN(c2cc3nc4n(c(=O)c3cc2F)CC/C4=C\c2ccc(C(=O)NCCCN3CCCC3)cc2)CC1
- inhibition [3]: Active

Structure (SMILES): CCN(CC)CCCNC(=O)c1ccc(/C=C2\CCn3c2nc2cc(NCCCN4CCCC4)c(F)cc2c3=O)cc1
- inhibition [3]: Active
- inhibition [4]: Active
- inhibition [5]: Active

Structure (SMILES): CN(C)CCNC(=O)c1ccc(/C=C2\CCn3c2nc2cc(N4CCN(C)CC4)c(F)cc2c3=O)cc1
- inhibition [3]: Active
- Activity [1]: Active
